Experiments:
[1] = Volume of distribution at steady state in Sprague-Dawley rat plasma at 2 mg/kg, iv by LC-MS/MS analysis; type: ADME, organism-based; conditions: Sprague-Dawley, plasma, read-out: Vdss
Mus musculus [2] = assay: Decrease in ratio of kynurenine to tryptophan in C57BL/6 mouse at 50 mg/kg, po after 2 hrs by LC-MS/MS analysis; type: functional; conditions: C57BL/6, po
[3] = Plasma concentration in C57BL/6 mouse at 50 mg/kg, po after 5 hrs by LC-MS/MS analysis; type: ADME, organism-based
CT26 [4] = assay: Antitumor activity against mouse CT26 cells xenografted in Balb/c mouse assessed as median time to end point at 100 mg/kg, po bid for 22 days; type: functional
CT26 [5] = assay: Antitumor activity against mouse CT26 cells xenografted in Balb/c mouse assessed as tumor growth delay at 400 mg/kg, po bid for 22 days; type: functional; conditions: 528 h, read-out: TGI
CT26 [6] = assay: Antitumor activity against mouse CT26 cells xenografted in Balb/c mouse assessed as tumor growth delay at 200 mg/kg, po bid for 22 days; type: functional; conditions: 528 h, read-out: TGI
CT26 [7] = assay: Antitumor activity against mouse CT26 cells xenografted in Balb/c mouse assessed as tumor growth delay at 100 mg/kg, po bid for 22 days; type: functional; conditions: 528 h, read-out: TGI
Mus musculus [8] = assay: Toxicity in BalB/c mouse xenografted with CT26 cells assessed as change in body weight at 100 to 400 mg/kg, po bid for 22 days; type: organism-based; conditions: in vivo, 528 h
CT26 [9] = assay: Antitumor activity against mouse CT26 cells xenografted in Balb/c mouse assessed as reduction in tumor weight at 100 mg/kg bid for 18 days administered via oral gavage; type: functional; conditions: 432 h
Mus musculus [10] = assay: Decrease in ratio of kynurenine to tryptophan in Balb/c mouse tumor xenografted with CT26 cells at 100 mg/kg bid for 18 days administered via oral gavage after 6 hrs by LC-MS/MS analysis; type: functional
[11] = molecular target: Prostaglandin E2 receptor EP4 subtype (Homo sapiens) (UniProt P35408); assay: Inhibition of Prostaglandin E2 receptor EP4 (unknown origin) at 10 uM
Prostaglandin E2 receptor EP4 subtype (Homo sapiens), sequence (P35408 whole entry): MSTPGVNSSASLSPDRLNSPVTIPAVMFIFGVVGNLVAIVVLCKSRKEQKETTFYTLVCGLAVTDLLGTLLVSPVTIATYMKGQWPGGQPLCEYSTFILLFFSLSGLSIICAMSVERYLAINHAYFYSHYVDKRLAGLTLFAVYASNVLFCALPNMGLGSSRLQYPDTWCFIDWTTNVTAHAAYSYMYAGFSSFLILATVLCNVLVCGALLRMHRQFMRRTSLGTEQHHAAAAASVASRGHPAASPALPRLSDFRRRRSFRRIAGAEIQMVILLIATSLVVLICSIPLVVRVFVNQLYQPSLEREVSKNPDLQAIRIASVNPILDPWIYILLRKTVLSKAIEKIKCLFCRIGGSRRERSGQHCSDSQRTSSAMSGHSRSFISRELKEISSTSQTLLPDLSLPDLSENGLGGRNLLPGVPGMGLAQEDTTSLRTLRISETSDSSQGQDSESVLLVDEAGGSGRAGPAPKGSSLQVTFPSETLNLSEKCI

hERG (KCNH2) = hERG (KCNH2) (Homo sapiens, UniProt Q12809); assay: Inhibition of human ERG at 10 uM
hERG (KCNH2), sequence (Q12809 whole entry): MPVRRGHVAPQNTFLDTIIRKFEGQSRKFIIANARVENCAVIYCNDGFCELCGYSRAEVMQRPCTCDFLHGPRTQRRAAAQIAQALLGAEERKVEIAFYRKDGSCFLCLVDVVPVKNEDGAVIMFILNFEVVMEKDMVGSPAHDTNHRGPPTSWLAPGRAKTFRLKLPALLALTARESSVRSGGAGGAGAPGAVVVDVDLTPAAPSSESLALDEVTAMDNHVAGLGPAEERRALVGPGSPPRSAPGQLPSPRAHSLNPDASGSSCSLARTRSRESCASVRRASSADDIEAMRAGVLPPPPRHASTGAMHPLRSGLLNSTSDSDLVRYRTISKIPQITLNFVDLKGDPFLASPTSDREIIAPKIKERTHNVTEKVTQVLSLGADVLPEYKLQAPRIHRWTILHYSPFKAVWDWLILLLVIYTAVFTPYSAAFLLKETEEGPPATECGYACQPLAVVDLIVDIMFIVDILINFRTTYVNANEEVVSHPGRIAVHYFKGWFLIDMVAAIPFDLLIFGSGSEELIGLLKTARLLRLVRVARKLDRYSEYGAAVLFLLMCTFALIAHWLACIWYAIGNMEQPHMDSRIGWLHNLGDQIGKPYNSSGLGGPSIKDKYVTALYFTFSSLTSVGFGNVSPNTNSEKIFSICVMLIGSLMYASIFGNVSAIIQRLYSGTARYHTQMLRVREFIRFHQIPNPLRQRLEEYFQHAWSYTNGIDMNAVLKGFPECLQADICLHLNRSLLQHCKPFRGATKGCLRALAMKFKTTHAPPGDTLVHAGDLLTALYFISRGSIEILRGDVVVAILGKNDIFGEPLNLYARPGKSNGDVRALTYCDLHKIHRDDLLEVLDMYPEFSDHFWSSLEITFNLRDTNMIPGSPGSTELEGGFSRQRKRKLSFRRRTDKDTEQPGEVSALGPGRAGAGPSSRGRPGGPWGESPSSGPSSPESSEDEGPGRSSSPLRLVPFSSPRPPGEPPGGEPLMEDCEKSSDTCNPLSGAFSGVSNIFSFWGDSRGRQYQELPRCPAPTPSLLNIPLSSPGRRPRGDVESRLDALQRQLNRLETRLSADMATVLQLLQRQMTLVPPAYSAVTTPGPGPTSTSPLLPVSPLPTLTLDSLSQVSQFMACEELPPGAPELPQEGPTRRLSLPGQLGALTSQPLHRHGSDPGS

Homo sapiens [12] = species: Homo sapiens; assay: Inhibition of Platelet-activating factor (unknown origin) at 10 uM
Homo sapiens [13] = species: Homo sapiens; assay: Inhibition of Phorbol ester receptor (unknown origin) at 10 uM
Homo sapiens [14] = species: Homo sapiens; assay: Inhibition of Nicotinic acetylcholine receptor (unknown origin) at 10 uM
[15] = molecular target: Neuropeptide Y receptor type 1 (Homo sapiens) (UniProt P25929); assay: Inhibition of Neuropeptide Y1 receptor (unknown origin) at 10 uM
[16] = molecular target: Muscarinic acetylcholine receptor M3 (Homo sapiens) (UniProt P20309); assay: Inhibition of Muscarinic M3 receptor (unknown origin) at 10 uM
[17] = molecular target: Cysteinyl leukotriene receptor 1 (Homo sapiens) (UniProt Q9Y271); assay: Inhibition of CysLT1 receptor (unknown origin) at 10 uM
[18] = molecular target: Interleukin-1 receptor type 1 (Homo sapiens) (UniProt P14778); assay: Inhibition of IL-1 receptor (unknown origin) at 10 uM
[19] = molecular target: Histamine H2 receptor (Homo sapiens) (UniProt P25021); assay: Inhibition of Histamine H2 receptor (unknown origin) at 10 uM
Histamine H2 receptor (Homo sapiens), sequence (P25021 whole entry): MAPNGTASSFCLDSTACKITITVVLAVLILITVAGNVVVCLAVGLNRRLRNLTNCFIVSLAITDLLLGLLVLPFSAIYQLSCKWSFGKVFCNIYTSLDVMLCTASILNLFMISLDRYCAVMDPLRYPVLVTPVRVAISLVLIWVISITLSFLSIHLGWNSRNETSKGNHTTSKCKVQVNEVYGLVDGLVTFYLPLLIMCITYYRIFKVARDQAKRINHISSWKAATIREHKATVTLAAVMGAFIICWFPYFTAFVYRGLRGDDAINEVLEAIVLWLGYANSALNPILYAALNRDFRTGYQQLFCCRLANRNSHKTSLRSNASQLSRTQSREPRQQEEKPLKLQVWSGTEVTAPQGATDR

[20] = molecular target: T1, Glutamate [NMDA] receptor (Homo sapiens) (UniProt Q05586+Q12879+Q13224+O15399+O60391+Q14957+Q8TCU5); assay: Inhibition of NMDA receptor phencyclidine binding site (unknown origin) at 10 uM
[21] = molecular target: T1, Glutamate [NMDA] receptor (Homo sapiens); assay: Inhibition of NMDA receptor glycine binding site (unknown origin) at 10 uM
[22] = molecular target: T1, Glutamate [NMDA] receptor (Homo sapiens); assay: Inhibition of NMDA receptor agonist binding site (unknown origin) at 10 uM
Homo sapiens [23] = species: Homo sapiens; assay: Inhibition of Glutamate kainate receptor (unknown origin) at 10 uM
[24] = molecular target: Gamma-aminobutyric acid type B receptor subunit 1 (Homo sapiens) (UniProt Q9UBS5); assay: Inhibition of GABAB1A receptor (unknown origin) at 10 uM
Homo sapiens [25] = species: Homo sapiens; assay: Inhibition of GABAA receptor central flunitrazepam site (unknown origin) at 10 uM
[26] = molecular target: Epidermal growth factor receptor (Homo sapiens) (UniProt P00533); assay: Inhibition of EGF receptor (unknown origin) at 10 uM
[27] = molecular target: Endothelin receptor type B (Homo sapiens) (UniProt P24530); assay: Inhibition of ETB receptor (unknown origin) at 10 uM
Homo sapiens [28] = species: Homo sapiens; assay: Inhibition of D4.2 receptor (unknown origin) at 10 uM
[29] = molecular target: D(2) dopamine receptor (Homo sapiens) (UniProt P14416); assay: Inhibition of Dopamine D2S receptor (unknown origin) at 10 uM
D(2) dopamine receptor (Homo sapiens), sequence (P14416 whole entry): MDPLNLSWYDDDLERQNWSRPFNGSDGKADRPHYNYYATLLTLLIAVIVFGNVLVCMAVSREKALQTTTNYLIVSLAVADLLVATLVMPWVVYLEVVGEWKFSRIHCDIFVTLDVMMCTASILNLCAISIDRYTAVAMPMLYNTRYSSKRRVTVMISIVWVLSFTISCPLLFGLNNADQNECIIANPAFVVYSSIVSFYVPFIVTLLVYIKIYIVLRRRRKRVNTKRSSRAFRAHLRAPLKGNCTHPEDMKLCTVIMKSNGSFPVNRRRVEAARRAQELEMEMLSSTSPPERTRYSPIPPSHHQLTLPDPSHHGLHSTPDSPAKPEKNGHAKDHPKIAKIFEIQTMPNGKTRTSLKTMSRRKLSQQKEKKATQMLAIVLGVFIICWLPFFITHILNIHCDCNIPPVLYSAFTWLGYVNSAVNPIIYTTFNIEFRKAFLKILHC

[30] = molecular target: D(1A) dopamine receptor (Homo sapiens) (UniProt P21728); assay: Inhibition of Dopamine D1 receptor (unknown origin) at 10 uM
D(1A) dopamine receptor (Homo sapiens), sequence (P21728 whole entry): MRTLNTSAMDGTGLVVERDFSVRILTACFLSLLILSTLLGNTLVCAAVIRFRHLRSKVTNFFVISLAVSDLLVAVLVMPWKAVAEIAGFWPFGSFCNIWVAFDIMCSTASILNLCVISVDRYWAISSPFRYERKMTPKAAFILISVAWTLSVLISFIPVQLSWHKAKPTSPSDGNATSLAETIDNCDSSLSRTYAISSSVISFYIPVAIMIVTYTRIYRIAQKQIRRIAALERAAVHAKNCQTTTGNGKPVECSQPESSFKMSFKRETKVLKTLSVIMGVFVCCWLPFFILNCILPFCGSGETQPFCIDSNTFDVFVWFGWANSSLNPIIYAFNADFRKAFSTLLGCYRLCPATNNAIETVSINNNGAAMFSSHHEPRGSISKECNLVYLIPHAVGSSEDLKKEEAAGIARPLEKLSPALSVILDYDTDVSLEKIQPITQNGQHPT

[31] = molecular target: B2 bradykinin receptor (Homo sapiens) (UniProt P30411); assay: Inhibition of Bradykinin B2 receptor (unknown origin) at 10 uM
[32] = molecular target: Androgen receptor (Homo sapiens) (UniProt P10275); assay: Inhibition of Androgen receptor (unknown origin) at 10 uM
Androgen receptor (Homo sapiens), sequence (P10275 whole entry): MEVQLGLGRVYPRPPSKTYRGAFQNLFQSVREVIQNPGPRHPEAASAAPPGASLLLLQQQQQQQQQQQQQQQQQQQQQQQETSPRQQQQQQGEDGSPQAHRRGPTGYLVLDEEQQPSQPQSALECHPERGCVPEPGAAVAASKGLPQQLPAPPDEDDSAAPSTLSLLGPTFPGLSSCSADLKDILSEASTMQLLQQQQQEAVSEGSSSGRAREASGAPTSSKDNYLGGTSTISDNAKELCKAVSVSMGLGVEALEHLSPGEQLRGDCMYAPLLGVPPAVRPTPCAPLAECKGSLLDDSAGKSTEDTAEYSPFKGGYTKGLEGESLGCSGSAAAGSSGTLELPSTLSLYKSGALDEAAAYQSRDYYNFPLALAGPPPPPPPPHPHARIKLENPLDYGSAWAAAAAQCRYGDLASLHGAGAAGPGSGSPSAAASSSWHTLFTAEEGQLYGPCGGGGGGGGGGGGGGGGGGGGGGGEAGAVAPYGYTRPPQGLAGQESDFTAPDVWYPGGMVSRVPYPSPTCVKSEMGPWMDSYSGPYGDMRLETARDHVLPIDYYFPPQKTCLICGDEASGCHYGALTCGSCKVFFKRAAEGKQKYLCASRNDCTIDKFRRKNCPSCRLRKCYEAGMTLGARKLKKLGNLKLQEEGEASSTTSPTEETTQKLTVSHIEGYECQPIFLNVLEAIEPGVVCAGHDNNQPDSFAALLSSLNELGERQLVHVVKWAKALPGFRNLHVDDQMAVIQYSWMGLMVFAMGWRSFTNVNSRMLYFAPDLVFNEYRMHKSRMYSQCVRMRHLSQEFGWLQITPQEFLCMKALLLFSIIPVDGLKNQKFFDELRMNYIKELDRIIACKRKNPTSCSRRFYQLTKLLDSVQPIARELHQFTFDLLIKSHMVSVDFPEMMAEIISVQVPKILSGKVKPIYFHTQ

[33] = molecular target: Beta-1 adrenergic receptor (Homo sapiens) (UniProt P08588); assay: Inhibition of Adrenergic beta1 receptor (unknown origin) at 10 uM
Beta-1 adrenergic receptor (Homo sapiens), sequence (P08588 whole entry, looked up): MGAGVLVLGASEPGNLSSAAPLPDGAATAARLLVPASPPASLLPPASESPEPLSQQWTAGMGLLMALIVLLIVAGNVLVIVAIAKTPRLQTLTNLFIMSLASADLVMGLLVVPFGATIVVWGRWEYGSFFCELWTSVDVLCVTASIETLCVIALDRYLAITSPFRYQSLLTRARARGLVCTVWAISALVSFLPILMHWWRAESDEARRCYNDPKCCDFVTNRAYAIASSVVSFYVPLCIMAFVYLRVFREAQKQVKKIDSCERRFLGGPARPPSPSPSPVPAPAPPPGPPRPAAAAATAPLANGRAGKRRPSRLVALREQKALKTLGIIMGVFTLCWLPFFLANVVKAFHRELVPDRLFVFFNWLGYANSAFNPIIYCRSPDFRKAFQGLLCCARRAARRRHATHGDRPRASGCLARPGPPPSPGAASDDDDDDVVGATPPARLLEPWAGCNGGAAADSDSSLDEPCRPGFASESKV

[34] = molecular target: Alpha-1D adrenergic receptor (Homo sapiens) (UniProt P25100); assay: Inhibition of Adrenergic alpha1D receptor (unknown origin) at 10 uM
[35] = molecular target: Adenosine receptor A3 (Homo sapiens) (UniProt P0DMS8); assay: Inhibition of Adenosine A3 receptor (unknown origin) at 10 uM
Adenosine receptor A3 (Homo sapiens), sequence (P0DMS8 whole entry): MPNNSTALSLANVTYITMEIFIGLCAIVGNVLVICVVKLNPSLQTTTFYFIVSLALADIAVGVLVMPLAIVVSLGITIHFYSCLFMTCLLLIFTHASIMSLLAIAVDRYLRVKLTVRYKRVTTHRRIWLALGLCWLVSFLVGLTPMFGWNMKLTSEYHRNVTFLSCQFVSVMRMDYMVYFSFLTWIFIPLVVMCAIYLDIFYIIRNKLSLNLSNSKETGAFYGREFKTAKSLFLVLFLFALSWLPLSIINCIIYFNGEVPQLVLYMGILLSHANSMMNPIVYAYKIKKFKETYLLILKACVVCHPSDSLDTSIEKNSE

[36] = molecular target: Adenosine receptor A2a (Homo sapiens) (UniProt P29274); assay: Inhibition of Adenosine A2A receptor (unknown origin) at 10 uM
Adenosine receptor A2a (Homo sapiens), sequence (P29274 whole entry): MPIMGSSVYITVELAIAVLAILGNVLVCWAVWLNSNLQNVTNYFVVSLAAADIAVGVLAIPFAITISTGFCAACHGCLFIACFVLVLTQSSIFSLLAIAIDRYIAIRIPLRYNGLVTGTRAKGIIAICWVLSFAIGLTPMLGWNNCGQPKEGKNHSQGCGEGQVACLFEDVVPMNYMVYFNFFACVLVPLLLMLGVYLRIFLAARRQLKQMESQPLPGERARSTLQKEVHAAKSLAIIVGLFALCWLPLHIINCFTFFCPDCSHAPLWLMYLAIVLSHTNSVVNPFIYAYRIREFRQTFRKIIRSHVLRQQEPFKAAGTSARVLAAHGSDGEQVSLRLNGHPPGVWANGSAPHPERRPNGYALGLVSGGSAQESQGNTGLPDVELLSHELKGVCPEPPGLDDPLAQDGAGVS

Homo sapiens [37] = species: Homo sapiens; assay: Inhibition of rolipram binding site (unknown origin) at 10 uM
Homo sapiens [38] = species: Homo sapiens; assay: Inhibition of Sodium channel site 2 (unknown origin) at 10 uM
[39] = molecular target: Sodium-dependent noradrenaline transporter (Homo sapiens) (UniProt P23975); assay: Inhibition of Norepinephrine transporter (unknown origin) at 10 uM
[40] = molecular target: Indoleamine 2,3-dioxygenase 1 (Homo sapiens, UniProt P14902); assay: Inhibition of human Indoleamine 2,3-dioxygenase using L-tryptophan as substrate by emission fluorescence analysis
[41] = Half life in Sprague-Dawley rat plasma at 10 mg/kg, po by LC-MS/MS analysis; type: ADME, organism-based
[42] = Tmax in Sprague-Dawley rat plasma at 10 mg/kg, po by LC-MS/MS analysis; type: ADME, organism-based
[43] = AUC (0 to infinity) in Sprague-Dawley rat plasma at 10 mg/kg, po by LC-MS/MS analysis; type: ADME, organism-based; parameters: dose 10 mg/kg, route oral, time infinity
Homo sapiens [44] = species: Homo sapiens; assay: Inhibition of Purinergic P2X receptor (unknown origin) at 10 uM
[45] = Clearance in Sprague-Dawley rat plasma at 2 mg/kg, iv by LC-MS/MS analysis; type: ADME, organism-based

## O=C1Cc2cc(S(=O)(=O)NNc3ccc(Br)cc3)ccc2N1
[1]
  Vd: 1.2 L/kg
Mus musculus [2]
  inhibition in vivo at 50 mg/kg: 31%
[3]
  concentration at 5 h: 2200 nM
CT26 [4]
  Time: 4 days
CT26 [5]
  inhibition in vivo at 400 mg/kg: 73%
CT26 [6]
  inhibition in vivo at 200 mg/kg: 63%
CT26 [7]
  inhibition in vivo at 100 mg/kg: 40%
Mus musculus [8]
  Activity: Non-toxic
CT26 [9]
  inhibition in vivo at 100 mg/kg: 64%
Mus musculus [10]
  inhibition in vivo at 100 mg/kg: 83%
[11]
  inhibition: < 50%
hERG (KCNH2)
  inhibition at 10 µM: < 50%
Homo sapiens [12]
  inhibition: < 50%
Homo sapiens [13]
  inhibition: < 50%
Homo sapiens [14]
  inhibition: < 50%
[15]
  inhibition: < 50%
[16]
  inhibition: < 50%
[17]
  inhibition: < 50%
[18]
  inhibition: < 50%
[19]
  inhibition: < 50%
[20]
  inhibition: < 50%
[21]
  inhibition: < 50%
[22]
  inhibition: < 50%
Homo sapiens [23]
  inhibition: < 50%
[24]
  inhibition: < 50%
Homo sapiens [25]
  inhibition: < 50%
[26]
  inhibition: < 50%
[27]
  inhibition: < 50%
Homo sapiens [28]
  inhibition: < 50%
[29]
  inhibition: < 50%
[30]
  inhibition: < 50%
[31]
  inhibition: < 50%
[32]
  inhibition: < 50%
[33]
  inhibition: < 50%
[34]
  inhibition: < 50%
[35]
  inhibition: < 50%
[36]
  inhibition: < 50%
Homo sapiens [37]
  inhibition: < 50%
Homo sapiens [38]
  inhibition: < 50%
[39]
  inhibition: 62%
[40]
  IC50: 0.0358 µM
[41]
  half-life: 2.3 h
[42]
  Tmax: 0.8 h
[43]
  AUC(0-inf): 7200 ng·h/mL
Homo sapiens [44]
  inhibition: < 50%
[45]
  clearance: 15.9 mL/min/kg

Reference: ChEMBL document CHEMBL3763120, “Phenyl Benzenesulfonylhydrazides Exhibit Selective Indoleamine 2,3-Dioxygenase Inhibition with Potent in Vivo Pharmacodynamic Activity and Antitumor Efficacy” (J Med Chem, 2016)
